Read-outs that look alike come from different tables or passages of the source.
Legend:
[1] = system: EV-D68; assay: microbe, parasite or virus in culture; format: cell-based, enterovirus D68 (EV-D68); details: Enterovirus D, EVD68, RD
[2] = system: EV-A71; assay: microbe, parasite or virus in culture; format: cell-based, enterovirus A71 (EV-A71); details: Enterovirus A, EVA71, RD
[3] = system: CVB3 Nancy virus; assay: microbe, parasite or virus in culture; format: cell-based, coxsackievirus B3 (CVB3); details: Enterovirus B, CVB3, Vero, read-out: EC50, Anti-CVB3 in Vero cells
[4] = in vitro; details: human
[5] = system: Vero cells; details: African green monkey
[6] = system: EV-D68, EV-A71, and CVB3; assay: organism not typed; format: cell-based
[7] = system: RD cells; details: human
[8] = read-out: EC50, Anti-EV-D68 US/KY/14-18953 in RD cells
[9] = read-out: EC50, Anti-EV-A71 Tainan/4643/1998 in RD cells
[10] = CC50, in RD cells (Anti-EV-A71)

| SMILES | EC50 [1, 8] | EC50 [2, 9] | EC50 [3] | CC50 [4, 10] | further results |
| --- | --- | --- | --- | --- | --- |
| CCCn1ncc2c(C(=O)NCCN(C)C)cc(C)nc21 [Compound 14, N-[2-(dimethylamino)ethyl]-6-methyl-1-propyl-1H-pyrazolo[3,4-b]pyridine-4-carboxamide] | 48400 nM | – | – | – | – |
| CC(CN)NC(=O)c1cc(C2CC2)nc2c1cnn2C(C)C (stereo not drawn) [Compound 7j, N-(1-aminopropan-2-yl)-6-cyclopropyl-1-(propan-2-yl)-1H-pyrazolo[3,4-b]pyridine-4-carboxamide] | 300 nM | 600 nM | 300 nM | – | – |
| CC(CN)NC(=O)c1cc(C(C)C)nc2c1cnn2C(C)C (stereo not drawn) [Compound 10f, N-(1-aminopropan-2-yl)-1,6-bis(propan-2-yl)-1H-pyrazolo[3,4-b]pyridine-4-carboxamide] | 400 nM | 500 nM | 600 nM | 118000 nM | – |
| CNCCCNC(=O)c1cc(C2CC2)nc2c1cnn2C(C)C [Compound 7m, 6-cyclopropyl-N-[3-(methylamino)propyl]-1-(propan-2-yl)-1H-pyrazolo[3,4-b]pyridine-4-carboxamide] | 1700 nM | 5300 nM | 1600 nM | 183000 nM | – |
| CCn1ncc2c(C(=O)NCCN(C)C)cc(C3CC3)nc21 [Compound 16, 6-cyclopropyl-N-[2-(dimethylamino)ethyl]-1-ethyl-1H-pyrazolo[3,4-b]pyridine-4-carboxamide] | 1700 nM | 1200 nM | 1800 nM | – | CC50 [5]: > 300000 nM; EC50 values in words (summary across viruses) [6]: single-digit micromolar range |
| CC(C)n1ncc2c(C(=O)NCCN3CCCC3)cc(C3CC3)nc21 [Compound 7b, 6-cyclopropyl-1-(propan-2-yl)-N-[2-(pyrrolidin-1-yl)ethyl]-1H-pyrazolo[3,4-b]pyridine-4-carboxamide] | 100 nM | 200 nM | 200 nM | 46500 nM | – |
| Cc1cc(C(=O)NCCN(C)C)c2cnn(C3CCCC3)c2n1 [Compound 13, 1-cyclopentyl-N-[2-(dimethylamino)ethyl]-6-methyl-1H-pyrazolo[3,4-b]pyridine-4-carboxamide] | 11100 nM | – | – | – | – |
| CC(CN(C)C)NC(=O)c1cc(C2CC2)nc2c1cnn2C(C)C (stereo not drawn) [Compound 7f, 6-cyclopropyl-N-[1-(dimethylamino)propan-2-yl]-1-(propan-2-yl)-1H-pyrazolo[3,4-b]pyridine-4-carboxamide] | 100 nM | 100 nM | 40 nM | 72600 nM | CC50 [5]: > 300000 nM |
| CC(C)c1cc(C(=O)NCCO)c2cnn(C(C)C)c2n1 [Compound 10b, N-(2-hydroxyethyl)-1,6-bis(propan-2-yl)-1H-pyrazolo[3,4-b]pyridine-4-carboxamide] | – | – | – | – | CC50 [7]: > 100000 nM |
| CC(C)n1ncc2c(C(=O)NC3CNC3)cc(C3CC3)nc21 [Compound 7e, N-(azetidin-3-yl)-6-cyclopropyl-1-(propan-2-yl)-1H-pyrazolo[3,4-b]pyridine-4-carboxamide] | 1400 nM | – | – | – | – |
| CC(C)n1ncc2c(C(=O)NCCN)cc(C(C)(C)C)nc21 [Compound 11b, N-(2-aminoethyl)-6-tert-butyl-1-(propan-2-yl)-1H-pyrazolo[3,4-b]pyridine-4-carboxamide] | 100 nM | 200 nM | 100 nM | 24600 nM | – |
| Cc1cc(C(=O)NCCN(C)C)c2cnn(C(C)C)c2n1 [Compound 12a, N-[2-(dimethylamino)ethyl]-6-methyl-1-(propan-2-yl)-1H-pyrazolo[3,4-b]pyridine-4-carboxamide] | 400 nM | 100 nM | 200 nM | – | CC50 [5]: > 300000 nM |
| CCN(CC)CCNC(=O)c1cc(C2CC2)nc2c1cnn2C(C)C [Compound 7c, 6-cyclopropyl-N-[2-(diethylamino)ethyl]-1-(propan-2-yl)-1H-pyrazolo[3,4-b]pyridine-4-carboxamide] | 400 nM | 300 nM | 500 nM | – | EC50 values in words (summary across viruses) [6]: submicromolar |
| CNCCNC(=O)c1cc(C2CC2)nc2c1c(C)nn2C(C)(C)C [Compound 18b, 1-tert-butyl-6-cyclopropyl-3-methyl-N-[2-(methylamino)ethyl]-1H-pyrazolo[3,4-b]pyridine-4-carboxamide] | 1100 nM | 8400 nM | 2900 nM | – | – |
| CC(C)n1ncc2c(C(=O)NCCN)cc(C3CC3)nc21 [Compound 7i, N-(2-aminoethyl)-6-cyclopropyl-1-(propan-2-yl)-1H-pyrazolo[3,4-b]pyridine-4-carboxamide] | 400 nM | 400 nM | 900 nM | – | – |
| Cc1cc(C(=O)NCCN(C)C)c2c(C)nn(C(C)(C)C)c2n1 [Compound 19, 1-tert-butyl-N-[2-(dimethylamino)ethyl]-3,6-dimethyl-1H-pyrazolo[3,4-b]pyridine-4-carboxamide] | 1000 nM | 7400 nM | 2100 nM | – | EC50 ([2]; read-out: EC50, EV-A71 A71 MP4): 2000 nM; EC50 ([2]; read-out: EC50, EV-A71 Tainan/4643/1998): 7400 nM; EC50 ([2]; read-out: EC50, EV-A71 USA/CT/2016-19519): 1300 nM; CC50 ([4]; CC50 (EV-A71 A71 MP4 row group)): 236000 nM; CC50 ([4]; CC50 (EV-A71 Tainan/4643/1998)): 236000 nM; CC50 ([4]; CC50 (EV-A71 USA/CT/2016-19519)): 236000 nM; EC50 ([1]; read-out: EC50, EV-D68 US/IL/14-18952 (Clade B2)): 700 nM; EC50 ([1]; read-out: EC50, EV-D68 US/IL/14-18956 (Clade B2)): 400 nM; EC50 ([1]; read-out: EC50, EV-D68 US/KY/14-18953 (Clade D)): 1000 nM; EC50 ([1]; read-out: EC50, EV-D68 US/MO/14-18947 (Clade B1)): 400 nM; EC50 ([1]; read-out: EC50, EV-D68 US/MO/14-18949 (Clade B1)): 700 nM; selectivity index across EV-D68 and EV-A71 strains tested [6]: > 100; EC50 ([6]; RD, read-out: EC50 values range against all EV-D68 and EV-A71 strains tested): 400 to 7400 nM |
| CCC(C)n1ncc2c(C(=O)NCCN(C)C)cc(C3CC3)nc21 (stereo not drawn) [Compound 21, 1-(butan-2-yl)-6-cyclopropyl-N-[2-(dimethylamino)ethyl]-1H-pyrazolo[3,4-b]pyridine-4-carboxamide] | 200 nM | 100 nM | 100 nM | – | EC50 values in words (summary across viruses) [6]: low single-digit or submicromolar |
| CC(C1CC1)n1ncc2c(C(=O)NCCN(C)C)cc(C3CC3)nc21 (stereo not drawn) [Compound 22, 6-cyclopropyl-1-(1-cyclopropylethyl)-N-[2-(dimethylamino)ethyl]-1H-pyrazolo[3,4-b]pyridine-4-carboxamide] | 700 nM | 200 nM | 1900 nM | – | EC50 values in words (summary across viruses) [6]: low single-digit or submicromolar |
| Cc1nn(C(C)(C)C)c2nc(C3CC3)cc(C(=O)NCCN(C)C)c12 [Compound 18a, 1-tert-butyl-6-cyclopropyl-N-[2-(dimethylamino)ethyl]-3-methyl-1H-pyrazolo[3,4-b]pyridine-4-carboxamide] | 800 nM | 3500 nM | 1800 nM | 45200 nM | – |
| CC(C)n1ncc2c(C(=O)NCCN(C)C)cc(C(C)(C)C)nc21 [Compound 11a, 6-tert-butyl-N-[2-(dimethylamino)ethyl]-1-(propan-2-yl)-1H-pyrazolo[3,4-b]pyridine-4-carboxamide] | 100 nM | 40 nM | 100 nM | 31400 nM | – |
| CC(C)n1ncc2c(C(=O)NC3CCN(C)C3)cc(C3CC3)nc21 (stereo not drawn) [Compound 7g, 6-cyclopropyl-N-(1-methylpyrrolidin-3-yl)-1-(propan-2-yl)-1H-pyrazolo[3,4-b]pyridine-4-carboxamide] | 100 nM | 100 nM | 100 nM | 20700 nM | CC50 ([4]; CC50, in RD cells (Anti-EV-D68)): 20700 nM; EC50 ([6]; read-out: EC50 (text summary, virus not singled out)): 100 nM |
| CC(C)c1cc(C(=O)NCCN)c2cnn(C(C)C)c2n1 [Compound 10e, N-(2-aminoethyl)-1,6-bis(propan-2-yl)-1H-pyrazolo[3,4-b]pyridine-4-carboxamide] | 600 nM | 600 nM | 900 nM | 170000 nM | – |
| CCCn1ncc2c(C(=O)NCCN(C)C)cc(C3CC3)nc21 [Compound 20, 6-cyclopropyl-N-[2-(dimethylamino)ethyl]-1-propyl-1H-pyrazolo[3,4-b]pyridine-4-carboxamide] | 1200 nM | 2000 nM | 2000 nM | 57700 nM | EC50 values in words (summary across viruses) [6]: low single-digit or submicromolar |
| CCN(CC)CCCNC(=O)c1cc(C2CC2)nc2c1cnn2C(C)C [Compound 7k, 6-cyclopropyl-N-[3-(diethylamino)propyl]-1-(propan-2-yl)-1H-pyrazolo[3,4-b]pyridine-4-carboxamide] | 1900 nM | 6100 nM | 1700 nM | – | – |
| COCCNC(=O)c1cc(C2CC2)nc2c1cnn2C(C)C [Compound 7a, 6-cyclopropyl-N-(2-methoxyethyl)-1-(propan-2-yl)-1H-pyrazolo[3,4-b]pyridine-4-carboxamide] | – | – | – | 178000 nM | – |
| CC(C)n1ncc2c(C(=O)NCCCN(C)C)cc(C3CC3)nc21 [Compound 7l, 6-cyclopropyl-N-[3-(dimethylamino)propyl]-1-(propan-2-yl)-1H-pyrazolo[3,4-b]pyridine-4-carboxamide] | 1200 nM | 1800 nM | 400 nM | – | CC50 [5]: > 200000 nM |

From patent US11834451B2 (priority 2021, dated 2023)
